Data on 33 molecules can be found in patent publication US10550102B2, “Indane and indoline derivatives and the use thereof as soluble guanylate cyclase activators” (NOVARTIS AG, priority 2014, dated 2020).

For this experiment, the target named is soluble guanylate cyclase (human GUCYA3 and GUCYB3) overexpressed in CHO cells (Homo sapiens (Human), UniProt Q02108+Q02153). The experiment can be described thus: CHO cellular assay (cGMP production, Cisbio cGMP HTRF kit). In kind it is cell-based. Particulars: CHO GUCY clone 8E10, cGMP production, assay buffer with 1 mM IBMX and 20 uM ODQ, 1 h room temperature; minimum quantification limit 0.5 nM (listed 0.5 nM means ≤0.5 nM); read-out: EC50. An outline of the steps:
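Stable CHO-K1 clone 8E10 expressing human sGC (GUCYA3/GUCYB3), 3000 cells/well, exposed 1 h at room temperature to activators in HBSS, 0.1% BSA, 1 mM IBMX, 20 uM ODQ, 0.5% DMSO final. cGMP was measured by HTRF and interpolated from a standard curve. EC50 came from a 4-parameter sigmoidal fit.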
On the technique in general: Time-resolved FRET reads energy transfer from a long-lived donor to a nearby acceptor.

Bounds are passed on as bounds.

Chain of soluble guanylate cyclase (human GUCYA3 and GUCYB3) overexpressed in CHO cells (Q02108 whole entry partner): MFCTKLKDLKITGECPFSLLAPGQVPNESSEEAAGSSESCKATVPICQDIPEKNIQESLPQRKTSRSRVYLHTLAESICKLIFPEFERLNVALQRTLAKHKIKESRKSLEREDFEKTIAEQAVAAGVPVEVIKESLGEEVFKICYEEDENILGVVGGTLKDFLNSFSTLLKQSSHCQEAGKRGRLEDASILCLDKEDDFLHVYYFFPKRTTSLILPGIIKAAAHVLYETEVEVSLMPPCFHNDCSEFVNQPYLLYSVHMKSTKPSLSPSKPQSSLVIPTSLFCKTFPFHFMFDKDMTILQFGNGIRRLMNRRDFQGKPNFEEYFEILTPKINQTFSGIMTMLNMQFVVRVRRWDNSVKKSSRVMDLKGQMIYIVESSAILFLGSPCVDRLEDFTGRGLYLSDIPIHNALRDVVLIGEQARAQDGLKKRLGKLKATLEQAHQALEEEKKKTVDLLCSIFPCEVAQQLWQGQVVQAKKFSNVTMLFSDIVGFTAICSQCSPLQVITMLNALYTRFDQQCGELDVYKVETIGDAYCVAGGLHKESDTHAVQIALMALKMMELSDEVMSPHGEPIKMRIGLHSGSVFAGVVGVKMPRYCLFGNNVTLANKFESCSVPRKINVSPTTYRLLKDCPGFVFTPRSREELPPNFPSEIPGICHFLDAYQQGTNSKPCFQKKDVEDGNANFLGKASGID
Chain of soluble guanylate cyclase (human GUCYA3 and GUCYB3) overexpressed in CHO cells (Q02153 whole entry): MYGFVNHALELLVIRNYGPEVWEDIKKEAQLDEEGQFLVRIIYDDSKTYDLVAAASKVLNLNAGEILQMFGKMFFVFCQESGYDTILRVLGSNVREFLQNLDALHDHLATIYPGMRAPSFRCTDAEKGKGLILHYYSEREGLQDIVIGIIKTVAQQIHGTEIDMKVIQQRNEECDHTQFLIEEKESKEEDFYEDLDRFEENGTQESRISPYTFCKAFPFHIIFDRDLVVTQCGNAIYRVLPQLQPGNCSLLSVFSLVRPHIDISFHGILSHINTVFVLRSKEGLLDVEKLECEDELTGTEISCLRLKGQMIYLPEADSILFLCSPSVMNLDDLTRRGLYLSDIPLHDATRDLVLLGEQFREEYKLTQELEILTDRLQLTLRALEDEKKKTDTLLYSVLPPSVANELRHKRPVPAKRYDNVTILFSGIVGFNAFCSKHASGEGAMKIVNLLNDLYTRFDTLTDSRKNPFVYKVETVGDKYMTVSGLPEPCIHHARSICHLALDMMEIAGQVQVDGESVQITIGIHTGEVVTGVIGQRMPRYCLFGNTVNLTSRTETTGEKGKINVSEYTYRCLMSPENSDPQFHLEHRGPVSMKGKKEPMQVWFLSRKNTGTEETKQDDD

With `CCc1c(C(=O)O)cnn1-c1cccc(-c2cccc3c2C(Nc2ccc(C4CCN(C(=O)C5CC5)CC4)cc2C)CC3)n1` (single isomer, unassigned; (-)) [Example 10b, (−)-1-(6-(3-((4-(1-(Cyclopropanecarbonyl)piperidin-4-yl)-2-methylphenyl)amino)-2,3-dihydro-1H-inden-4-yl)pyridin-2-yl)-5-ethyl-1H-pyrazole-4-carboxylic Acid], the EC50 (commonly the concentration at which the effect is half-maximal) was 49 nM.

Take `Cc1cc(C2CCN(C(=O)C3CC3)CC2)ccc1NC1COc2cccc(-c3cccc(-n4ncc(C(=O)O)c4C)n3)c21` (single isomer, unassigned; (-)) [Example 34b]: the EC50 was determined as 3.9 nM.

Consider `Cc1cc(C2CCN(C(=O)[C@H](C)O)CC2)ccc1NC1COc2cccc(-c3cccc(-n4ncc(C(=O)O)c4C)n3)c21` (single isomer, unassigned; (-)) [Example 35b], for which the EC50 turned out to be 17 nM.

Take `Cc1cc(C2CCN(C(=O)C3CC3)CC2)ccc1CC1CCc2cccc(-c3cccc(-n4ncc(C(=O)O)c4C)n3)c21` (single isomer, unassigned; (-)) [Example 37. b). (−), (−)-1-(6-(3-(4-(1-(cyclopropanecarbonyl)piperidin-4-yl)-2-methylbenzyl)-2,3-dihydro-1H-inden-4-yl)pyridin-2-yl)-5-methyl-1H-pyrazole-4-carboxylic Acid]: the EC50 was 6.3 nM.

Consider `CCc1cc(CC2CCc3cccc(-c4cccc(-n5ncc(C(=O)O)c5CC)n4)c32)ccc1C1CCN(C(=O)[C@H](C)O)CC1` (single isomer, unassigned; (-)) [Example 39. b). (−)], for which the EC50 came to 1 nM.

As for `CCc1cc(CC2CCc3cccc(-c4cccc(-n5ncc(C(=O)O)c5CC)n4)c32)ccc1C1CCN(C(=O)OC)CC1` (single isomer, unassigned; (-)) [Example 41. b). (−), (−)-5-ethyl-1-(6-(3-(3-ethyl-4-(1-(methoxycarbonyl)piperidin-4-yl)benzyl)-2,3-dihydro-1H-inden-4-yl)pyridin-2-yl)-1H-pyrazole-4-carboxylic acid], the EC50 turned out to be 18 nM.

Consider `CCc1c(C(=O)O)cnn1-c1cccc(-c2cccc3c2C(Cc2ccc(C4CCN(C(=O)OC)CC4)cc2C)CC3)n1` (single isomer, unassigned; (-)) [Example 42. b). (−), (−)-5-ethyl-1-(8-(3-(4-(1-(methoxycarbonyl)piperidin-4-yl)-2-methylbenzyl)-2,3-dihydro-1H-inden-4-yl)pyridin-2-yl)-1H-pyrazole-4-carboxylic acid], for which the concentration for a half-maximal effect (EC50) worked out at 93 nM.

Turning to `Cc1cc(C2CCN(C(=O)C3CCC3)CC2)ccc1NC1CCc2cccc(-c3cccc(-n4ncc(C(=O)O)c4C)n3)c21` (single isomer, unassigned; (-)) [Example 45b], the EC50 is 3.5 nM.

For `Cc1cc(C2CCN(C(=O)[C@H](C)O)CC2)ccc1NC1CCc2cccc(-c3cccc(-n4ncc(C(=O)O)c4C)n3)c21` (single isomer, unassigned; (-)) [Example 47b], the EC50 stood at 27 nM.

As to `CCc1nc(NC2CCc3cccc(-c4cccc(-n5ncc(C(=O)O)c5CC)n4)c32)ccc1C1CCN(C(=O)C2CC2)CC1` (single isomer, unassigned; (-)) [Example 63b, (−)-1-(6-(3-((5-(1-(Cyclopropanecarbonyl)piperidin-4-yl)-6-ethylpyridin-2-yl)amino)-2,3-dihydro-1H-inden-4-yl)pyridin-2-yl)-5-ethyl-1H-pyrazole-4-carboxylic Acid], the EC50 stood at 60 nM.

`Cc1cc(C2CCN(C(=O)C3CC3)CC2)ccc1OC1CCc2cccc(-c3cccc(-n4ncc(C(=O)O)c4C(F)(F)F)c3)c21` (single isomer, unassigned; (-)) [Example (−)-1. b), (−)-1-(3-(3-(4-(1-(cyclopropanecarbonyl)piperidin-4-yl)-2-methylphenoxy)-2,3-dihydro-1H-inden-4-yl)phenyl)-5-(trifluoromethyl)-1H-pyrazole-4-carboxylic acid]: the EC50 came out at 10 nM.

Turning to `Cc1cc(C2CCN(C(=O)C3CC3)CC2)ccc1NC1CCc2cccc(-c3cccc(-n4ncc(C(=O)O)c4C(F)(F)F)n3)c21` (single isomer, unassigned; (-)) [Example (−)-8. b), (−)-1-(6-(3-((4-(1-(cyclopropanecarbonyl)piperidin-4-yl)-2-methylphenyl)amino)-2,3-dihydro-1H-inden-4-yl)pyridin-2-yl)-5-(trifluoromethyl)-1H-pyrazole-4-carboxylic Acid], the EC50 came out at 53 nM.

Take `Cc1cc(C2CCN(C(=O)C3CC3)CC2)ccc1O[C@H]1CCc2cccc(-c3cccc(-n4ncc(C(=O)O)c4C)c3)c21` [Example 2, (+)-(S)-1-(3-(3-(4-(1-(Cyclopropanecarbonyl)piperidin-4-yl)-2-methylphenoxy)-2,3-dihydro-1H-inden-4-yl)phenyl)-6-methyl-1H-pyrazole-4-carboxylic Acid]: the EC50 was 1 nM.

For the molecule `Cc1cc2c(c(-c3cccc(-n4ncc(C(=O)O)c4C(F)(F)F)n3)c1)C(Oc1ccc3c(c1)CCN(Cc1ccccn1)C3)CC2` (stereo not drawn) [Example 5-1], the EC50 was 39 nM.

In the case of `Cc1cc2c(c(-c3cccc(-n4ncc(C(=O)O)c4C(F)(F)F)n3)c1)C(Oc1ccc(C3CCN(C(=O)C4CC4)CC3)cc1C)CC2` (stereo not drawn) [Example 5-2], the EC50 was determined as 1 nM.

Consider `CCc1cc(O[C@H]2CCc3cccc(-c4cccc(-n5ncc(C(=O)O)c5C(F)(F)F)n4)c32)ccc1C1CCN(C(=O)C2CC2)CC1` [Example 5-3], for which the EC50 was no more than 0.5 nM.

As to `Cc1cc(C2CCN(CC(F)(F)F)CC2)ccc1O[C@H]1CCc2cccc(-c3cccc(-n4ncc(C(=O)O)c4C(F)(F)F)n3)c21` [Example 5-4], the EC50 worked out at 2 nM.

In the case of `Cc1cc(C2CCN(C(=O)C3CC3)CC2)ccc1O[C@H]1CCc2cccc(-c3cccc(-n4cc(C(=O)O)cn4)n3)c21` [Example 5-5], the EC50 is 2.4 nM.

In the case of `Cc1cc(C2CCN(C(=O)C3CC3)CC2)ccc1O[C@H]1CCc2cccc(-c3cccc(-n4ncc(C(=O)O)c4C)n3)c21` [Example 5-6], the EC50 was no more than 0.5 nM.

With `CCc1c(C(=O)O)cnn1-c1cccc(-c2cccc3c2[C@@H](Oc2ccc(C4CCN(C(=O)C5CC5)CC4)cc2C)CC3)n1` [Example 5-7], the EC50 was no more than 0.5 nM.

For the molecule `CCc1c(C(=O)O)cnn1-c1cccc(-c2cccc3c2[C@@H](Oc2ccc(C4CCN(CC(F)(F)F)CC4)cc2C)CC3)n1` [Example 5-8], the 50% effective concentration (EC50) is 1 nM.

In the case of `CCc1cc(O[C@H]2CCc3cccc(-c4cccc(-n5ncc(C(=O)O)c5CC)n4)c32)ccc1C1CCN(C(=O)C2CC2)CC1` [Example 5-9], the EC50 is no more than 0.5 nM.

As to `O=C(O)c1cnn(-c2cccc(-c3cccc4c3C(Nc3ccc(C5CCN(C(=O)C6CC6)CC5)cc3)CC4)n2)c1C(F)(F)F` (stereo not drawn) [Example 11-2], the EC50 was 1 nM.

Take `CCc1c(C(=O)O)cnn1-c1cccc(-c2cccc3c2C(Nc2ccc(C4CCN(CC(F)(F)F)CC4)cc2C)CC3)n1` (stereo not drawn) [Example 11-3]: the half-maximal effective concentration (EC50) amounted to 1.4 nM.

Consider `O=C(O)c1cnn(-c2cccc(-c3cccc4c3N(Cc3ccc(C5CCN(C(=O)C6CC6)CC5)cc3)CC4)n2)c1C(F)(F)F` [Example 12, 1-(6-(1-(4-(1-(Cyclopropanecarbonyl)piperidin-4-yl)benzyl)indolin-7-yl)pyridin-2-yl)-5-(trifluoromethyl)-1H-pyrazole-4-carboxylic Acid], for which the EC50 was determined as 1 nM.

As for `CCc1cc(CN2CCc3cccc(-c4cccc(-n5ncc(C(=O)O)c5C(F)(F)F)n4)c32)ccc1C1CCN(C(=O)C2CC2)CC1` [Example 13], the EC50 is no more than 0.5 nM.

For `CCc1cc(CN2CCc3cccc(-c4cccc(-n5ncc(C(=O)O)c5CC)n4)c32)ccc1C1CCN(C(=O)C2CC2)CC1` [Example 14, 1-(6-(1-(4-(1-(Cyclopropanecarbonyl)piperidin-4-yl)-3-ethylbenzyl)indolin-7-yl)pyridin-2-yl)-5-ethyl-1H-pyrazole-4-carboxylic Acid], the EC50 was no more than 0.5 nM.

Regarding `CCc1cc(CN2CCc3cccc(-c4cccc(-n5ncc(C(=O)O)c5C(F)(F)F)n4)c32)ccc1C1CCN(CC(F)(F)F)CC1` [Example 15], the EC50 is 1.5 nM.

Take `CCc1cc(CN2CCc3cccc(-c4cccc(-n5ncc(C(=O)O)c5CC)n4)c32)ccc1C1CCN(CC(F)(F)F)CC1` [Example 16, 5-Ethyl-1-(6-(1-(3-ethyl-4-(1-(2,2,2-trifluoroethyl)piperidin-4-yl)benzyl)indolin-7-yl)pyridin-2-yl)-1H-pyrazole-4-carboxylic Acid]: the EC50 is 3.5 nM.

As for `CCc1c(C(=O)O)cnn1-c1cccc(-c2cccc3c2N(Cc2ccc(C4CCN(C(=O)[C@H](C)O)CC4)cc2C)CC3)n1` [Example 18, (S)-5-Ethyl-1-(6-(1-(4-(1-(2-hydroxypropanoyl)piperidin-4-yl)-2-methylbenzyl)indolin-7-yl)pyridin-2-yl)-1H-pyrazole-4-carboxylic Acid], the half-maximal effective concentration (EC50) amounted to 1.4 nM.

`CCc1c(C(=O)O)cnn1-c1cccc(-c2cccc3c2N(Cc2ccc(C4CCN(C(=O)C5CC5)CC4)cc2C)CC3)n1` [Example 21-2, 1-(6-(1-(4-(1-(Cyclopropanecarbonyl)piperidin-4-yl)-2-methylbenzyl)indolin-7-yl)pyridin-2-yl)-5-ethyl-1H-pyrazole-4-carboxylic acid]: the EC50 was no more than 0.5 nM.

For `CCc1cc(CN2CC(C)(C)c3cccc(-c4cccc(-n5ncc(C(=O)O)c5CC)n4)c32)ccc1C1CCN(C(=O)C2CC2)CC1` [Example 23], the EC50 is 2 nM.

In the case of `Cc1cc(C2CCN(C3CC3)CC2)ccc1CN1CCc2cccc(-c3cccc(-n4ncc(C(=O)O)c4C)n3)c21` [Example 24, 1-(6-(1-(4-(1-Cyclopropylpiperidin-4-yl)-2-methylbenzyl)indolin-7-yl)pyridin-2-yl)-5-methyl-1H-pyrazole-4-carboxylic Acid], the EC50 is 7.9 nM.
